What was measured:
[1] = xn = mol fraction of the nth substance listed; details: 101 kPa, Liquid
[2] = wn = mass fraction of the nth substance listed; details: 101 kPa, Liquid

CN(CCO)CCO [N-methyldiethanolamine] + O
mass density [kg/m3]
Details | 298.15 K | 303.15 K | 308.15 K | 313.15 K | 318.15 K | 323.15 K | 328.15 K | 333.15 K | 338.15 K
[1], x1 = 0.0128 | – | – | – | – | – | – | 991.808 | 989.191 | 986.433
[1], x1 = 0.0212 | – | – | – | – | – | 998.073 | 995.518 | 992.82 | 989.984
[1], x1 = 0.0498 | – | – | – | – | – | 1007.87 | 1005.02 | 1002.04 | 998.939
[1], x1 = 0.0645 | – | – | – | – | – | 1013.06 | 1010.03 | 1006.73 | 1003.61
[1], x1 = 0.0799 | – | – | – | – | – | 1016.68 | 1013.51 | 1010.24 | 1006.85
[1], x1 = 0.1332 | – | – | – | – | – | 1026.23 | 1022.67 | 1019.02 | 1015.29
[1], x1 = 0.1557 | – | – | – | – | – | 1028.34 | 1024.69 | 1020.96 | 1017.15
[1], x1 = 0.1944 | – | – | – | – | – | 1031.78 | 1027.97 | 1024.08 | 1020.13
[1], x1 = 0.2407 | – | – | – | – | – | 1033.11 | 1029.25 | 1025.29 | 1021.29
[1], x1 = 0.2725 | – | – | – | – | – | 1033.74 | 1029.77 | 1025.95 | 1021.9
[1], x1 = 0.366 | – | – | – | – | – | 1033.24 | 1029.24 | 1025.2 | 1021.1
[1], x1 = 0.4302 | – | – | – | – | – | 1031.66 | 1027.68 | 1023.66 | 1019.6
[1], x1 = 0.5642 | – | – | – | – | – | 1027.75 | 1023.83 | 1019.88 | 1015.88
[1], x1 = 0.6687 | – | – | – | – | – | 1022.4 | 1018.52 | 1014.62 | 1010.7
[1], x1 = 0.7531 | – | – | – | – | – | 1020.86 | 1016.84 | 1012.83 | 1008.96
[2], w1 = 0.3228 | 1027.27 | 1024.82 | 1022.16 | 1019.44 | 1016.54 | 1013.63 | 1010.47 | 1007.39 | 1003.91
[2], w1 = 0.488 | 1041.37 | 1038.16 | 1034.94 | 1031.74 | 1028.35 | 1024.83 | 1021.38 | 1017.75 | 1014.17

— the NIST ThermoML archive (doi:10.1021/je800416y)
